Measurements from patent US9238658B2, “Substituted piperidinyl-carboxamide derivatives useful as SCD 1 inhibitors” (Janssen Pharmaceutica NV, priority 2011, dated 2016).

Biological target: SCD1 (Rattus norvegicus (Rat), UniProt P07308)
Test: SCD1 enzymatic assay in rat liver microsomes (RLM)
Type: biochemical
Conditions: for inhibition at 1 µM: 1 μM test compound
Description: Step 1: Preparation of Rat Liver Microsome (RLM)
Sprague Dawley rats from Charles River (200-225 g) underwent 2-cycle of fast-re-feeding (24-hour fast followed by 24-hour feeding with fat-free high carbohydrate diet, Research Diet, D00042802). The livers were removed and homogenized 1:4 (w/v) with pre-chilled, homogenizing buffer (10 mM Tris-HCl, 0.25 M sucrose, 1 mM EDTA, pH 7.4, supplemented with protease inhibitor cocktail). The homogenate was spun at 12,000×g for 15 min at 4° C. The supernatant was then re-centrifuged at 100,000×g for 60 min at 4° C. The pellet was re-suspended in 2 ml pre-chilled […] potassium phosphate buffer, pH 7.2, 10 mM EDTA at a concentration of 20 mg/ml. The resulting rat liver microsome (RLM) preparation was stored at […].
Step 2: SCD1 Enzymatic Assay in RLM:
The SCD1 enzymatic assay was done in a volume of 50 μL using 10 μg of RLM (prepared as described above) in a 96-well polypropylene plate (enzyme reaction buffer contains 0.1 M K-Phosphate Buffer, 10 mM ATP, 6 mM MgCl2, 1 mM CoA, 1 mM β-NADH, 1.6 mM L-glutathione, 20 μM Stearoyl-CoA). Stearoyl-[9,10-^3H]—CoA (ARC-0390, 1 mCi/mL, 60 Ci/mmol,) was added at a final concentration of 2 μCi/mL. Test compound was then added to the reaction mixture at the selected concentration. After incubation at room temperature for 2 hours, 5 μL 1 N HCl was added to stop the reaction, followed by addition of 25 μL of 10% charcoal. The reaction mixture was then transferred to 96-well Multiscreen plate (Millipore, Cat# MSFCN6B50). [^3H2O] was collected into Opti-plate (PE, Cat #6005290) by centrifuge, at 1,000 rpm for 2 minutes. 150 μL Microscint 40 (PE, cat #6013641) was then added to each well and counted on Topcount for [^3H] counts per minute (cpm). The measured cpm values were fitted with Sigmoidal dose-response curve fit with Graphpad Prism.

Sequence of SCD1 (P07308 whole entry): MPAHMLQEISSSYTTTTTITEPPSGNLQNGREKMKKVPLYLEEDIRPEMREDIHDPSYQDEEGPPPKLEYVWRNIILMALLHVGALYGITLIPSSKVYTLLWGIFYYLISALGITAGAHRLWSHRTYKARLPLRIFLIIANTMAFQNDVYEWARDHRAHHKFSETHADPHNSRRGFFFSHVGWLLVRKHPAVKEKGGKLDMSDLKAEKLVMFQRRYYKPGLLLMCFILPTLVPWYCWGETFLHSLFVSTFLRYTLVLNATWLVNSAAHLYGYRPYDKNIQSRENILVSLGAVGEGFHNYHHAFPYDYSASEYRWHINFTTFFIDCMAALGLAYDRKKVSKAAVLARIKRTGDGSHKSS

Row | SMILES | inhibition at 1 µM [%] | IC50 [µM]
1 | CNC(=O)c1cccc(NC(=O)N2CCC(N3C(=O)Cc4ccccc43)CC2)c1 [Compound 1, N-(3-(methylcarbamoyl)phenyl)-4-(2-oxoindolin-1-yl)piperidine-1-carboxamide] | 7 | –
2 | CCCc1nc2ccc(NC(=O)N3CCC(c4noc5ccc(F)cc45)CC3)cc2o1 [Compound 7, 4-(5-fluorobenzo[d]isoxazol-3-yl)-N-(2-propylbenzo[d]oxazol-6-yl)piperidine-1-carboxamide] | 55 | 1.01
3 | CCCCc1cc(NC(=O)N2CCC(c3noc4ccc(F)cc34)CC2)ccc1F [Compound 8, N-(3-butyl-4-fluorophenyl)-4-(5-fluorobenzo[d]isoxazol-3-yl)piperidine-1-carboxamide] | 12 | –
4 | CNC(=O)c1cccc(NC(=O)N2CCC(c3noc4cc(F)ccc34)CC2)c1 [Compound 10, 4-(6-fluorobenzo[d]isoxazol-3-yl)-N-(3-(methylcarbamoyl)phenyl)piperidine-1-carboxamide] | 23 | –
5 | Cc1csc(NC(=O)N2CCC(c3noc4cc(F)ccc34)CC2)n1 [Compound 11, 4-(6-fluorobenzo[d]isoxazol-3-yl)-N-(4-methylthiazol-2-yl)piperidine-1-carboxamide] | 40 | –
6 | CCOC(=O)c1csc(NC(=O)N2CCC(N3CCc4ccc(F)cc43)CC2)n1 [Compound 22, ethyl 2-(4-(6-fluoroindolin-1-yl)piperidine-1-carboxamido)thiazole-4-carboxylate] | 8 | > 1
7 | CNC(=O)c1csc(NC(=O)N2CCC(N3CCc4ccc(F)cc43)CC2)n1 [Compound 23, 2-(4-(6-fluoroindolin-1-yl)piperidine-1-carboxamido)-N-methylthiazole-4-carboxamide] | 20 | > 1
8 | NC(=O)c1csc(NC(=O)N2CCC(N3CCc4ccc(F)cc43)CC2)n1 [Compound 26, 2-(4-(6-fluoroindolin-1-yl)piperidine-1-carboxamido)thiazole-4-carboxamide] | 62 | 0.682
9 | CNC(=O)Cc1csc(NC(=O)N2CCC(N3CCc4ccc(F)cc43)CC2)n1 [Compound 28, 4-(6-fluoroindolin-1-yl)-N-(4-(2-(methylamino)-2-oxoethyl)thiazol-2-yl)piperidine-1-carboxamide] | 22 | > 1
10 | NC(=O)Cc1csc(NC(=O)N2CCC(N3CCc4ccc(F)cc43)CC2)n1 [Compound 30, N-(4-(2-amino-2-oxoethyl)thiazol-2-yl)-4-(6-fluoroindolin-1-yl)piperidine-1-carboxamide] | 57 | 0.845
11 | O=C(Nc1nc(CN2CCCCC2)cs1)N1CCC(N2CCc3ccc(F)cc32)CC1 [Compound 31, 4-(6-fluoroindolin-1-yl)-N-(4-(piperidin-1-ylmethyl)thiazol-2-yl)piperidine-1-carboxamide] | 44 | –
12 | CC(C)(C)[Si](C)(C)OC1CCc2nc(NC(=O)N3CCC(N4CCc5ccc(F)cc54)CC3)sc2C1 (centres unmarked) [Compound 32, N-(6-((tert-butyldimethylsilyl)oxy)-4,5,6,7-tetrahydrobenzo[d]thiazol-2-yl)-4-(6-fluoroindolin-1-yl)piperidine-1-carboxamide] | 31 | –
13 | CC(C)(C)OC(=O)N1CCc2nc(NC(=O)N3CCC(N4CCc5ccc(F)cc54)CC3)sc2C1 [Compound 34, tert-butyl 2-(4-(6-fluoroindolin-1-yl)piperidine-1-carboxamido)-6,7-dihydrothiazolo[5,4-c]pyridine-5(4H)-carboxylate] | 35 | –
14 | CC(=O)N1CCc2nc(NC(=O)N3CCC(N4CCc5ccc(F)cc54)CC3)sc2C1 [Compound 40, N-(5-acetyl-4,5,6,7-tetrahydrothiazolo[5,4-c]pyridin-2-yl)-4-(6-fluoroindolin-1-yl)piperidine-1-carboxamide] | 46 | –
